Experimental data reported in US8410114B2, “2-pyrazinone derivatives for the treatment of disease or condition in which inhibition of neutrophil elastase activity is beneficial” (AstraZeneca AB, priority 2006, dated 2013).
pIC50: −log10 of the molar value.

molecular target: T1, Human Neutrophil Elastase (HNE) (Homo sapiens, UniProt P08246); assay: Human Neutrophil Elastase Quenched-FRET Assay; assay type: biochemical; conditions: HNE 1.7 nM, substrate MeOSuc-AAPV-AMC 100 μM, 15 min preincubation, 30 min incubation at room temperature; read-out: Inhibition of Human Neutrophil Elastase IC50
T1 construct: Human Neutrophil Elastase (HNE) purified from serum (Calbiochem art. 324681); purchased Calbiochem 324681; host or cells: purified from human material ('serum' in the source)
T1 sequence (P08246 30-247 limits assumed): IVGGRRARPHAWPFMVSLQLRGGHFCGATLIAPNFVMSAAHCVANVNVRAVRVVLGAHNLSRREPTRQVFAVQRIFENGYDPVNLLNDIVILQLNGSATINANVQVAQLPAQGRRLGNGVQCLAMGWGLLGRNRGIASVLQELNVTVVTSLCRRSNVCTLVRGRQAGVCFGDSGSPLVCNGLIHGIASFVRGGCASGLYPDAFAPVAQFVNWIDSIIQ
Procedure: Human Neutrophil Elastase Quenched-FRET Assay
The assay uses Human Neutrophil Elastase (HNE) purified from serum (Calbiochem art. 324681; Ref. Baugh, R. J. et al., 1976, Biochemistry. 15, 836-841). HNE was stored in 50 mM sodium acetate (NaOAc), 200 mM sodium chloride (NaCl), pH 5.5 with added 30% glycerol at −20° C. The protease substrate used was Elastase Substrate V Fluorogenic, MeOSuc-AAPV-AMC (Calbiochem art. 324740; Ref. Castillo, M. J. et al., 1979, Anal. Biochem. 99, 53-64). The substrate was stored in dimethyl sulphoxide (DMSO) at −20° C. The assay additions were as follows: Test compounds and controls were added to black 96-well flat-bottom plates (Greiner 655076), 1 μL in 100% DMSO, followed by 30 μL HNE in assay buffer with 0.01% Triton (trade mark) X-100 detergent. The assay buffer constitution was: 100 mM Tris(hydroxymethyl)aminomethane (TRIS) (pH 7.5) and 500 mM NaCl. The enzyme and the compounds were incubated at room temperature for 15 minutes. Then 30 μl substrate in assay buffer was added. The assay was incubated for 30 minutes at room temperature. The concentrations of HNE enzyme and substrate during the incubation were 1.7 nM and 100 μM, respectively. The assay was then stopped by adding 60 μl stop solution (140 mM acetic acid, 200 mM sodium monochloroacetate, 60 mM sodium acetate, pH 4.3). Fluorescence was measured on a Wallac 1420 Victor 2 instrument at settings: Excitation 380 nm, Emission 460 nm. IC50 values were determined using Xlfit curve fitting using model 205.

Compared with `CNC(=O)c1nc(-c2ccnn2-c2ccc(C#N)cc2)c(C)n(-c2cccc(C(F)(F)F)c2)c1=O` [Example 1, 6-[2-(4-Cyano-phenyl)-2H-pyrazol-3-yl]-5-methyl-3-oxo-4-(3-trifluoromethyl-phenyl)-3,4-dihydro-pyrazine-2-carboxylic acid methylamide], `Cc1c(-c2ccnn2-c2ccc(C#N)cc2)nc(C(=O)NCC(=O)O)c(=O)n1-c1cccc(C(F)(F)F)c1` [Example 16, 2-[[6-[2-(4-Cyanophenyl)pyrazol-3-yl]-5-methyl-3-oxo-4-[3-(trifluoromethyl)phenyl]-3,4-dihydro-pyrazine-2-carbonyl]amino]acetic acid] is 0.27 log units lower in pIC50: 9.48 for the first, 9.21 for the second.

Compared with `Cc1c(-c2ccnn2-c2ccc(C#N)cc2)nc(C(=O)NCc2ccc(S(C)(=O)=O)cn2)c(=O)n1-c1cccc(C(F)(F)F)c1` [Example 2, 6-[2-(4-Cyano-phenyl)-2H-pyrazol-3-yl]-5-methyl-3-oxo-4-(3-trifluoromethyl-phenyl)-3,4-dihydro-pyrazine-2-carboxylic acid (5-methanesulfonyl-pyridin-2-ylmethyl)-amide], `Cc1c(-c2ccnn2-c2ccc(C#N)nc2)nc(C(=O)NC2CC2)c(=O)n1-c1cccc(C(F)(F)F)c1` [Example 12, 6-[1-(6-Cyanopyridin-3-yl)-1H-pyrazol-5-yl]-N-cyclopropyl-5-methyl-3-oxo-4-[3-(trifluoromethyl)phenyl]-3,4-dihydropyrazine-2-carboxamide] is 0.49 log units lower in pIC50: 9.49 for the first, 9.00 for the second.
